Measured values from patent publication US20230149333A1, “COMPOSITIONS AND USES OF LOCALLY APPLIED SYNTHETIC AMINO ACID POLYMERS FOR PREVENTION AND TREATMENT OF VIRAL INFECTIONS” (Amicrobe, Inc., priority 2020, published 2023).

Assays:
[1] = tested on: Coronavirus (strain OC43); experiment: Virucidal Suspension Test (In-Vitro Time-Kill method) based upon ASTM E1052-20
Protocol: (§1) The antiviral activities of Composition A and Composition B were evaluated by challenging them with two different viruses, Coronavirus (strain OC43, ZeptoMetrix Corp. #0810024CF) and Influenza A H1N1 (strain A/WS/33, ATCC #VR-1520). A Virucidal Suspension Test (In-Vitro Time-Kill method) based upon the ASTM E1052-20, “Standard Practice to Assess the Activity of Microbicides against Viruses in Suspension” was used. The percent and log10 reductions from the initial populations of the viral strains were determined following exposure to Compositions A and B at two different exposure times (2 minutes and 10 minutes).

[2] = tested on: Influenza A H1N1 (strain A/WS/33); experiment: as above
Protocol: as §1

Substance	Log10 reduction ([1]; 10 µg/mL, 2 min exposure)	Percent reduction ([1]; 10 µg/mL, 2 min exposure)	Log10 reduction ([1]; 10 µg/mL, 10 min exposure)	Percent reduction ([1]; 10 µg/mL, 10 min exposure)	Log10 reduction ([1]; 100 µg/mL, 2 min exposure)	Percent reduction ([1]; 100 µg/mL, 2 min exposure)	Log10 reduction ([1]; 100 µg/mL, 10 min exposure)	Percent reduction ([1]; 100 µg/mL, 10 min exposure)	Log10 reduction ([1]; 1000 µg/mL, 2 min exposure)	Percent reduction ([1]; 1000 µg/mL, 2 min exposure)	Log10 reduction ([1]; 1000 µg/mL, 10 min exposure)	Percent reduction ([1]; 1000 µg/mL, 10 min exposure)	Log10 reduction ([2]; 10 µg/mL, 2 min exposure)	Percent reduction ([2]; 10 µg/mL, 2 min exposure)	Log10 reduction ([2]; 10 µg/mL, 10 min exposure)	Percent reduction ([2]; 10 µg/mL, 10 min exposure)	Log10 reduction ([2]; 100 µg/mL, 2 min exposure)	Percent reduction ([2]; 100 µg/mL, 2 min exposure)	Log10 reduction ([2]; 100 µg/mL, 10 min exposure)	Percent reduction ([2]; 100 µg/mL, 10 min exposure)	also measured
Poly(L-lysine hydrochloride)-b-poly(D,L-leucine) [Composition A]	0.25 log10	43.77%	0.5 log10	68.38%	0.25 log10	43.77%	0.5 log10	68.38%	0.5 log10	68.38%	1 log10	90%	0.25 log10	43.77%	0.50 log10	68.38%	0.75 log10	82.22%	0.75 log10	82.22%	Log10 reduction ([2]; 1000 µg/mL, 2 min exposure): 0.75 log10; Percent reduction ([2]; 1000 µg/mL, 2 min exposure): 82.22%; Log10 reduction ([2]; 1000 µg/mL, 10 min exposure): 0.50 log10; Percent reduction ([2]; 1000 µg/mL, 10 min exposure): 68.38%
Poly(L-lysine hydrochloride)-b-poly(L-leucine) [Composition B]	0.25 log10	43.77%	1 log10	90%	0.75 log10	82.22%	0.75 log10	82.22%	0.5 log10	68.38%	0.75 log10	82.22%	0.75 log10	82.22%	0.75 log10	82.22%	0.50 log10	68.38%	0.50 log10	68.38%	Log10 reduction ([2]; 1000 µg/mL, 2 min exposure): 0.00 log10; Percent reduction ([2]; 1000 µg/mL, 2 min exposure): 0.00%; Log10 reduction ([2]; 1000 µg/mL, 10 min exposure): 1.00 log10; Percent reduction ([2]; 1000 µg/mL, 10 min exposure): 90.00%
